Data taken from the supplement of paper PMC10307832.

How the values were obtained:
Assay in all cases: relative viability (nuclei count vs DMSO), 5 days (fraction); higher = more cells survive
[1] = tested on: A-427
Procedure, shortened: (§1)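 Nuclei were stained with Hoechst during a one-step fixation (final 0.05% Triton X-100, 1% formaldehyde, 1 ug/ml Hoechst) carried out 5 days after dosing, then counted on 4× images. The cells, lung cancer lines in 1536-well plates, had been dosed by pin tool the day after seeding with one drug alone or a fixed anchor-drug dose plus five library-drug doses (not always all listed) in √10 steps. Relative viability is the nuclei count in treated wells divided by that in vehicle wells, and each value is the median of duplicate plates.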

[2] = tested on: HCC-366
Procedure, shortened: as §1

[3] = tested on: HCC-827
Procedure, shortened: as §1

[4] = tested on: LC-2-ad
Procedure, shortened: as §1

[5] = tested on: LCLC-103H
Procedure, shortened: as §1

[6] = tested on: NCI-H1355
Procedure, shortened: as §1

[7] = tested on: NCI-H1734
Procedure, shortened: as §1

[8] = tested on: NCI-H1755
Procedure, shortened: as §1

[9] = tested on: NCI-H1792
Procedure, shortened: as §1

[10] = tested on: NCI-H1915
Procedure, shortened: as §1

[11] = tested on: NCI-H1975
Procedure, shortened: as §1

[12] = tested on: NCI-H1993
Procedure, shortened: as §1

[13] = tested on: NCI-H2170
Procedure, shortened: as §1

[14] = tested on: NCI-H2228
Procedure, shortened: as §1

[15] = tested on: NCI-H2342
Procedure, shortened: as §1

[16] = tested on: NCI-H2347
Procedure, shortened: as §1

[17] = tested on: NCI-H23
Procedure, shortened: as §1

[18] = tested on: NCI-H650
Procedure, shortened: as §1

[19] = tested on: RERF-LC-KJ
Procedure, shortened: as §1

[20] = tested on: SK-LU-1
Procedure, shortened: as §1

[21] = tested on: SK-MES-1
Procedure, shortened: as §1

[22] = tested on: SW 1573
Procedure, shortened: as §1

[23] = tested on: UMC-11
Procedure, shortened: as §1

CN1CCN(CCOc2cc(OC3CCOCC3)c3c(Nc4c(Cl)ccc5c4OCO5)ncnc3c2)CC1 [Saracatinib] + Nc1nc2[nH]cc(CCc3ccc(C(=O)N[C@@H](CCC(=O)O)C(=O)O)cc3)c2c(=O)[nH]1 [Pemetrexed] (partner 0.2 µM)
relative viability ([1]; first compound 0.02 µM): 0.963 | relative viability ([1]; first compound 0.2 µM): 0.787 | relative viability ([1]; first compound 0.6325 µM): 0.846 | relative viability ([1]; first compound 2 µM): 1.01 | relative viability ([2]; first compound 0.02 µM): 0.162 | relative viability ([2]; first compound 0.2 µM): 0.17 | relative viability ([2]; first compound 0.6325 µM): 0.189 | relative viability ([2]; first compound 2 µM): 0.17 | relative viability ([3]; first compound 0.02 µM): 0.286 | relative viability ([3]; first compound 0.2 µM): 0.158 | relative viability ([3]; first compound 0.6325 µM): 0.189 | relative viability ([3]; first compound 2 µM): 0.168 | relative viability ([4]; first compound 0.02 µM): 0.286 | relative viability ([4]; first compound 0.2 µM): 0.282 | relative viability ([4]; first compound 0.6325 µM): 0.268 | relative viability ([4]; first compound 2 µM): 0.27 | relative viability ([5]; first compound 0.02 µM): 0.444 | relative viability ([5]; first compound 0.2 µM): 0.329 | relative viability ([5]; first compound 0.6325 µM): 0.451 | relative viability ([5]; first compound 2 µM): 0.48 | relative viability ([6]; first compound 0.02 µM): 1 | relative viability ([6]; first compound 0.2 µM): 1.02 | relative viability ([6]; first compound 0.6325 µM): 1 | relative viability ([6]; first compound 2 µM): 1.06 | relative viability ([7]; first compound 0.02 µM): 0.418 | relative viability ([7]; first compound 0.6325 µM): 0.414 | relative viability ([7]; first compound 2 µM): 0.4 | relative viability ([8]; first compound 0.02 µM): 0.465 | relative viability ([8]; first compound 0.2 µM): 0.409 | relative viability ([8]; first compound 0.6325 µM): 0.424 | relative viability ([8]; first compound 2 µM): 0.394 | relative viability ([9]; first compound 0.02 µM): 1.06 | relative viability ([9]; first compound 0.2 µM): 0.644 | relative viability ([9]; first compound 0.6325 µM): 1.12 | relative viability ([9]; first compound 2 µM): 0.788 | relative viability ([10]; first compound 0.02 µM): 0.477 | relative viability ([10]; first compound 0.2 µM): 0.4 | relative viability ([10]; first compound 0.6325 µM): 0.501 | relative viability ([10]; first compound 2 µM): 0.481 | relative viability ([11]; first compound 0.02 µM): 0.276 | relative viability ([11]; first compound 0.2 µM): 0.265 | relative viability ([11]; first compound 0.6325 µM): 0.275 | relative viability ([11]; first compound 2 µM): 0.253 | relative viability ([12]; first compound 0.02 µM): 0.626 | relative viability ([12]; first compound 0.2 µM): 0.519 | relative viability ([12]; first compound 0.6325 µM): 0.642 | relative viability ([12]; first compound 2 µM): 0.471 | relative viability ([13]; first compound 0.02 µM): 0.25 | relative viability ([13]; first compound 0.2 µM): 0.253 | relative viability ([13]; first compound 0.6325 µM): 0.277 | relative viability ([13]; first compound 2 µM): 0.202 | relative viability ([14]; first compound 0.02 µM): 0.355 | relative viability ([14]; first compound 0.2 µM): 0.342 | relative viability ([14]; first compound 0.6325 µM): 0.332 | relative viability ([14]; first compound 2 µM): 0.266 | relative viability ([15]; first compound 0.02 µM): 0.83 | relative viability ([15]; first compound 0.2 µM): 0.673 | relative viability ([15]; first compound 0.6325 µM): 0.789 | relative viability ([15]; first compound 2 µM): 0.84 | relative viability ([16]; first compound 0.02 µM): 0.435 | relative viability ([16]; first compound 0.2 µM): 0.421 | relative viability ([16]; first compound 0.6325 µM): 0.464 | relative viability ([16]; first compound 2 µM): 0.429 | relative viability ([17]; first compound 0.02 µM): 0.683 | relative viability ([17]; first compound 0.6325 µM): 0.613 | relative viability ([17]; first compound 2 µM): 0.519 | relative viability ([18]; first compound 0.02 µM): 0.962 | relative viability ([18]; first compound 0.2 µM): 0.903 | relative viability ([18]; first compound 0.6325 µM): 0.884 | relative viability ([18]; first compound 2 µM): 0.874 | relative viability ([19]; first compound 0.02 µM): 0.477 | relative viability ([19]; first compound 0.2 µM): 0.463 | relative viability ([19]; first compound 0.6325 µM): 0.47 | relative viability ([19]; first compound 2 µM): 0.441 | relative viability ([20]; first compound 0.02 µM): 0.918 | relative viability ([20]; first compound 0.2 µM): 0.868 | relative viability ([20]; first compound 0.6325 µM): 0.654 | relative viability ([20]; first compound 2 µM): 0.557 | relative viability ([21]; first compound 0.02 µM): 0.923 | relative viability ([21]; first compound 0.2 µM): 0.905 | relative viability ([21]; first compound 0.6325 µM): 0.886 | relative viability ([21]; first compound 2 µM): 0.466 | relative viability ([22]; first compound 0.02 µM): 0.823 | relative viability ([22]; first compound 0.2 µM): 0.899 | relative viability ([22]; first compound 0.6325 µM): 0.794 | relative viability ([22]; first compound 2 µM): 0.767 | relative viability ([23]; first compound 0.02 µM): 0.809 | relative viability ([23]; first compound 0.2 µM): 0.699 | relative viability ([23]; first compound 0.6325 µM): 0.898 | relative viability ([23]; first compound 2 µM): 0.607
